The text below walks through data of US6548553B2, “Styryl sulfone anticancer agents” (Temple University-of the Commonwealth System of Higher …, priority 1997, dated 2003).

Holding throughout (type): cell-based
For one series, the system named is JNK. As to the kind of experiment: JNK immune complex kinase assay with GST-c-Jun substrate, treated cells. Particulars: 48 hours treatment; NIH3T3, MCF-7 or LnCaP. How it is done: To further establish if the activity of stress activated protein kinases (SAPKs), of which JNK is a member, is compromised in the presence of FRI-20, cells (NIH3T3, MCF-7 or LnCaP) were treated with FRI-20 dissolved in DMSO or with DMSO alone. Forty-eight hours later, the cells were lysed with kinase buffer and the lysates used for estimation of the amount of JNK present in each lysate by western blot analysis using JNK polyclonal antibody. The biochemical activity of the JNK present in the FRI-20-treated and mock-treated cell lysates was also determined by immunoprecipitation of JNK followed by incubation with GST-c-Jun protein as a substrate for JNK in the presence of [γ-^32P]ATP.
Accordingly, JNK-1 in 100 mg of cell extracts was immunoprecipitated by incubating the lysate with […] of JNK-1 polyclonal antibody (sc from Santa Cruz Biotechnology) for one hour followed by an additional incubation with 20 μl of protein A-Sepharose (Pharmacia) for one hour. The beads were washed twice with JNK lysis buffer (as described above) followed by two washes with JNK reaction buffer. The beads were resuspended in 40 μl of JNK buffer containing […] [γ-^32P] […] The reaction was stopped, and the radioactivity in the phosphorylated GST-c-Jun protein was quantitated.

The subject of another series is N417. The series is described as follows: GI50 growth inhibition, trypan blue cell count. Conditions: Homo sapiens, lung, small cell, 96 hours after addition. The procedure:
(§1) The human carcinoma cell lines listed in Table 5 below were purchased from ATCC and grown in an appropriate growth medium containing 10% fetal bovine serum (FBS) and antibiotics. The cells were plated at a cell density of 1.0×10^5 cells per […] in 6-well dishes. The cells were treated with various concentrations of (E)-fluorostyryl-4-bromobenzylsulfone 24 hours after plating in a total volume of 1 ml of medium using dimethylsulfoxide (DMSO) as a solvent for the compound. Control cells were treated with DMSO alone. The total number of viable cells was determined 96 hours after the addition of the compound by counting the cells in each well using a hemacytometer after trypan blue staining (viable cells exclude the stain). The counts were done in duplicate and the average was graphed in FIG. 8 as a percentage of the non-treated control group.
(§2) Applying the same protocol as in Example 34, the GI50 for compound FRI-20 treatment of the cell lines in Table 6 was determined: […]

For the next series, the system named is TE 354. As to the kind of experiment: GI50 growth inhibition, trypan blue cell count. Conditions: Homo sapiens; basal cell carcinoma; 96 hours after addition. The procedure: as §1, §2
The subject of a further series is Hs-802.T. The series is described as follows: GI50 growth inhibition, trypan blue cell count. Conditions: Homo sapiens; squamous cell carcinoma; 96 hours after addition. The procedure: as §1, §2
For a further series, the system named is CEM. As to the kind of experiment: GI50 growth inhibition, trypan blue cell count. Conditions: Homo sapiens, CCRF-CEM; acute lymphocytic lymphoma; 96 hours after addition. The procedure:
as §1, §2

For the next series, the system named is MES-SA. As to the kind of experiment: GI50 growth inhibition, trypan blue cell count. Particulars: Homo sapiens, uterine sarcoma, 96 hours after addition. The procedure: as §1, §2
The next series relates to HCT116. The series is described as follows: GI50 growth inhibition, trypan blue cell count. Particulars: Homo sapiens, HCT-116; cob-rectal; 96 hours after addition. How it is done: as §1, §2
The test system of another series is CAKI-1. As to the kind of experiment: GI50 growth inhibition, trypan blue cell count. Conditions: Homo sapiens, renal, 96 hours after addition. The procedure: as §1, §2
In a further series the test system is LnCaP and MCF-7 cells. As to the kind of experiment: Trypan blue exclusion viability assay, Tables 2-4. Particulars: 5.0 μM compound, 48 hours, read-out: % viable LnCaP and MCF-7 cells. The procedure:
The effect of the styryl sulfones on the growth of normal and tumor cells of breast and prostate was examine utilizing four cell lines, NIH3T3, MCF-7, BT-20 and LnCap. NIH/3T3 cells represent normal fibroblasts while LnCap is an androgen-dependent prostate tumor cell line. MCF-7 is an estrogen-responsive breast tumor cell line, while BT-20 is an estrogen-unresponsive breast tumor cell line. MCF-7 and BT-20 were grown in Dulbecco's modified Eagle's medium (DMEM) containing 10% fetal bovine serum supplemented with penicillin and streptomycin. LnCaP were cultured in RPMI with 10% fetal bovine serum containing penicillin and streptomycin. NIH3T3 cells were grown in DMEM containing 10% calf serum supplemented with penicillin and streptomycin. All cell cultures were maintained at 37° C. in a humidified atmosphere of 5% CO2.
Cells were treated with test compound at 2.5 μM or 5.0 μM concentration and cell viability was determined after 48 hours by the Trypan blue exclusion method. The compounds identified in Tables 2, 3 and 4 inhibited cell growth and induced cell death, to varying degrees. The tables list the percent viable LnCap and MCF-7 cells treated with 5.0 μM compound.

A short description of series [1]: Trypan blue exclusion viability assay, normal fibroblast cell lines. Particulars: mouse (NIH3T3), human (HFL), NIH3T3 and HFL cells (normal fibroblast cell lines), 2.5 and 5.0 μM, read-out: percent viability. The procedure:
The effect of FR-20 on the growth of normal and tumor cells of breast and prostate was examine utilizing nine cell lines: NIH/3T3 and HFL (normal fibroblast cell lines); MCF-7 and 361 ([…] breast tumor cell lines); BT-20, 435 and SKBR-3 ([…] breast tumor cell lines); LnCaP (androgen sensitive prostate tumor cell line); PC-3 and DU-145 (androgen insensitive prostate tumor cell line).
The cells were grown as in Example 22, A. FR-20 was dissolved in DMSO and added to the cells at 2.5 μM and 5.0 μM concentration. To control cells, DMSO was added equivalent to the volume of solvent (DMSO) present at the highest concentration of the compound. The activity of the compound was evaluated after 48 hours by Trypan blue exclusion. […] Nearly 50% of SKBR-3 and BT-20 cells were dead at 2.5 μM and 75% at 5.0 μM concentration of the compound. […] FRI-20 had profound effect on the viability of androgen-dependent LnCaP prostate tumor cell line when compared to androgen-independent DU-145 and PC-3 prostate cell lines. At […] FRI-20, 80% of LnCaP, 40% of PC-3 and 20% of DU-145 cells were killed. At […] FRI-20, 72% of LnCaP, 47% of PC-3 and 40% of DU-145 were killed (FIG. 3B).

As for `O=S(=O)(/C=C/c1ccc(F)cc1)Cc1ccc(Cl)cc1` [Example 11, E-4-fluorostyryl 4-chlorobenzyl Sulfone], in the series with JNK, the “enhancement of JNK phosphorylation of GST-c-Jun compared to mock-treated cells” value is 60-80%. For the same molecule, the GI50 (as a rule, the concentration giving 50% growth inhibition) was found to be 1 µM in the series with N417; 4 µM in the series on TE 354; 4 µM with Hs-802.T; 1 µM with CEM; 1 µM in the series with MES-SA; 1 µM in the series with HCT116. In the series on CAKI-1, this molecule displayed a GI50 of 1.5 µM. For the same molecule, the viability at 5 µM in the series with LnCaP and MCF-7 cells came to 6%. The viability at 48 h in [1] lay in the range of 85 to 90%.
